Earlier results on four molecules are cited in patent US7528137B2, “Compounds, compositions, and methods” (Cytokinetics, Inc., priority 2002, dated 2009).

A word on the GI50: it is the concentration that inhibits growth by half.

Structures are written as SMILES.

This series deals with A549 cells. The following applies: data provided by National Cancer Institute, Developmental Therapeutic Program.
Regarding `O=c1[nH]cc(F)c(=O)[nH]1` [5-fluorouracil], the GI50 was 1000 nM.
Turning to `COc1cccc2c1C(=O)c1c(O)c3c(c(O)c1C2=O)C[C@@](O)(C(=O)CO)C[C@@H]3O[C@H]1C[C@H](N)[C@H](O)[C@H](C)O1` [doxorubicin], the GI50 is 63 nM.
Consider `NC(=O)NO` [hydroxyurea], for which the GI50 was 500000 nM.
As for `CC(=O)O[C@H]1C(=O)[C@@]2(C)[C@H]([C@H](OC(=O)c3ccccc3)[C@]3(O)C[C@H](OC(=O)[C@H](O)[C@@H](NC(=O)c4ccccc4)c4ccccc4)C(C)=C1C3(C)C)[C@]1(OC(C)=O)CO[C@@H]1C[C@@H]2O` [paclitaxel], the GI50 is 4 nM.
